According to US20240041042A1, “1-(PYRIDYL)-5-AZINYLPYRAZOLE DERIVATIVES, AND THEIR USE FOR CONTROL OF UNDESIRED PLANT GROWTH” (Bayer Aktiengesellschaft, priority 2020, published 2024):

Legend:
Type in all cases: in vivo
[1] = tested on: Viola tricolor (VIOTR); assay: Pre-emergence herbicidal action against VIOTR
Summary of the method: (§1)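 Pre-emergence soil-surface spray of compound, formulated as wettable powder or emulsion concentrate, in aqueous suspension or emulsion with 0.5% additive (600 l/ha; rate 320 g/ha or less). Activity rated visually after roughly 3 weeks in the greenhouse as a percentage of untreated controls, 0% meaning no difference.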

[2] = tested on: Alopecurus myosuroides (ALOMY); assay: Post-emergence herbicidal action against ALOMY; settings: 320 g/ha, visual rating about 3 weeks after treatment vs untreated controls (100% = plants have died, 0% = like control plants)
Summary of the method: (§2)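 Post-emergence greenhouse spray, one-leaf stage, 600 l/ha water plus 0.5% additive; WP or EC formulations; application rates 320 g/ha or lower. Visual % damage vs untreated controls at ~3 weeks.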

[3] = tested on: Viola tricolor (VIOTR); assay: Post-emergence herbicidal action against VIOTR
Summary of the method: as §2

[4] = tested on: Amaranthus retroflexus (AMARE); assay: Pre-emergence herbicidal action against AMARE; settings: visual scoring after about 3 weeks vs untreated controls
Summary of the method: as §1

[5] = tested on: Lolium rigidum (LOLRI); assay: Pre-emergence herbicidal action against LOLRI; settings: dosage 320 g/ha
Summary of the method: as §1

[6] = tested on: Amaranthus retroflexus (AMARE); assay: Post-emergence herbicidal action against AMARE
Summary of the method: as §2

[7] = tested on: Polygonum convolvulus (POLCO); assay: Post-emergence herbicidal action against POLCO
Summary of the method: as §2

[8] = tested on: Pharbitis purpurea (PHBPU); assay: Post-emergence herbicidal action against PHBPU
Summary of the method: as §2

[9] = tested on: Avena fatua (AVEFA); assay: Pre-emergence herbicidal action against AVEFA; settings: 320 g/ha, visual scoring after about 3 weeks vs untreated controls
Summary of the method: as §1

[10] = tested on: Lolium rigidum (LOLRI); assay: Post-emergence herbicidal action against LOLRI
Summary of the method: as §2

[11] = tested on: Echinochloa crus-galli (ECHCG); assay: Post-emergence herbicidal action against ECHCG
Summary of the method: as §2

[12] = tested on: Pharbitis purpurea (PHBPU); assay: Pre-emergence herbicidal action against PHBPU
Summary of the method: as §1

[13] = tested on: Setaria viridis (SETVI); assay: Post-emergence herbicidal action against SETVI
Summary of the method: as §2

[14] = tested on: Abutilon theophrasti (ABUTH); assay: Post-emergence herbicidal action against ABUTH; settings: visual rating about 3 weeks after treatment vs untreated controls (100% = plants have died, 0% = like control plants)
Summary of the method: as §2

[15] = tested on: Matricaria inodora (MATIN); assay: Pre-emergence herbicidal action against MATIN
Summary of the method: as §1

[16] = tested on: Polygonum convolvulus (POLCO); assay: Pre-emergence herbicidal action against POLCO; settings: dosage 320 g/ha
Summary of the method: as §1

[17] = tested on: Verconica persica (VERPE); assay: Pre-emergence herbicidal action against VERPE
Summary of the method: as §1

[18] = tested on: Avena fatua (AVEFA); assay: Post-emergence herbicidal action against AVEFA; settings: 320 g/ha, visual rating about 3 weeks after treatment
Summary of the method: as §2

[19] = tested on: Setaria viridis (SETVI); assay: Pre-emergence herbicidal action against SETVI
Summary of the method: as §1

[20] = tested on: Matricaria inodora (MATIN); assay: Post-emergence herbicidal action against MATIN
Summary of the method: as §2

[21] = tested on: Alopecurus myosuroides (ALOMY); assay: Pre-emergence herbicidal action against ALOMY; settings: scored visually after about 3 weeks, 100% = plants have died
Summary of the method: as §1

[22] = tested on: Echinochloa crus-galli (ECHCG); assay: Pre-emergence herbicidal action against ECHCG
Summary of the method: as §1

[23] = tested on: Verconica persica (VERPE); assay: Post-emergence herbicidal action against VERPE
Summary of the method: as §2

For `CCOC(=O)COc1nn(-c2ccccn2)c(-c2ccc(F)nc2)c1Cl` [Example I-85], the “Pre-emergence action against VIOTR in %” value ([1]; 320 g/ha, Viola tricolor) was 100%, the “Pre-emergence action against VIOTR in %” value ([1]; dosage 80 g/ha) was 100% and the “Post-emergence action against ALOMY in %” value [2] was 100%. For the same molecule, the “Post-emergence action against VIOTR in %” value ([3]; 80 g/ha) was 100%, the “Post-emergence action against VIOTR in %” value ([3]; 320 g/ha) was 100% and the “Pre-emergence action against AMARE in %” value ([4]; 80 g/ha) was 90%. The “Pre-emergence action against AMARE in %” value ([4]; 320 g/ha) was 100%, the “Pre-emergence action against LOLRI in %” value [5] was 100% and the “Post-emergence action against AMARE in %” value ([6]; 80 g/ha, visual rating about 3 weeks after treatment vs untreated controls (100% = plants have died, 0% = like control plants)) was 90%. For the same molecule, the “Post-emergence action against AMARE in %” value ([6]; 320 g/ha, visual rating about 3 weeks after treatment) was 90%, the “Post-emergence action against POLCO in %” value ([7]; dosage 80 g/ha) was 90% and the “Post-emergence action against POLCO in %” value ([7]; dosage 320 g/ha) was 90%. For the same molecule, the “Post-emergence action against PHBPU in %” value ([8]; dosage 80 g/ha) was 90%, the “Post-emergence action against PHBPU in %” value ([8]; dosage 320 g/ha) was 90% and the “Pre-emergence action against AVEFA in %” value [9] was 90%. For the same molecule, the “Post-emergence action against LOLRI in %” value ([10]; dosage 80 g/ha) was 100%, the “Post-emergence action against LOLRI in %” value ([10]; dosage 320 g/ha) was 100% and the “Post-emergence action against ECHCG in %” value ([11]; dosage 80 g/ha) was 90%. The “Post-emergence action against ECHCG in %” value ([11]; dosage 320 g/ha) was 90%, the “Pre-emergence action against PHBPU in %” value ([12]; dosage 80 g/ha) was 90% and the “Pre-emergence action against PHBPU in %” value ([12]; dosage 320 g/ha) was 100%. For the same molecule, the “Post-emergence action against SETVI in %” value ([13]; dosage 80 g/ha) was 90%, the “Post-emergence action against SETVI in %” value ([13]; dosage 320 g/ha) was 100% and the “Post-emergence action against ABUTH in %” value ([14]; 80 g/ha) was 90%. For the same molecule, the “Post-emergence action against ABUTH in %” value ([14]; 320 g/ha) was 90%, the “Pre-emergence action against MATIN in %” value ([15]; dosage 80 g/ha) was 100% and the “Pre-emergence action against MATIN in %” value ([15]; dosage 320 g/ha) was 100%. For the same molecule, the “Pre-emergence action against POLCO in %” value [16] was 100%, the “Pre-emergence action against VERPE in %” value ([17]; dosage 80 g/ha) was 100% and the “Pre-emergence action against VERPE in %” value ([17]; dosage 320 g/ha) was 100%. For the same molecule, the “Post-emergence action against AVEFA in %” value [18] was 100%, the “Pre-emergence action against SETVI in %” value ([19]; dosage 80 g/ha) was 100% and the “Pre-emergence action against SETVI in %” value ([19]; dosage 320 g/ha) was 100%. For the same molecule, the “Post-emergence action against MATIN in %” value ([20]; dosage 80 g/ha) was 80%, the “Post-emergence action against MATIN in %” value ([20]; dosage 320 g/ha) was 90% and the “Pre-emergence action against ALOMY” value ([21]; 80 g/ha) was 80%. The “Pre-emergence action against ALOMY” value ([21]; 320 g/ha) was 90%, the “Pre-emergence action against ECHCG in %” value ([22]; dosage 80 g/ha) was 100% and the “Pre-emergence action against ECHCG in %” value ([22]; dosage 320 g/ha) was 100%. The “Post-emergence action against VERPE in %” value ([23]; 320 g/ha, VERPE) was 90% and the “Post-emergence action against VERPE in %” value ([23]; dosage 80 g/ha) was 90%.
